Experimental data: US12590122B2, “NRP-1 binding inhibitory peptides and uses thereof” (priority 2019, dated 2026)
Read-outs that look alike come from different tables or passages of the source. Where a SMILES comes first, the peptide text is derived from it.

Assays:
NRP-1 [1] = target: T1, NRP-1 (Homo sapiens, UniProt O14786); experiment: NRP-1 binding assay: inhibition of (bt)-VEGF-A165 binding to immobilized NRP-1, chemiluminescent detection
Method: More precisely, the inventors have shown that the compounds of formula (I) disclosed herein bind to NRP-1 at the nanomolar level whereas the most efficient known inhibitors to date bind to NRP-1 at the micromolar level.
The flat bottom surface of a 96-well plate was coated with 100 μL (200 ng/well) recombinant human NRP-1 and incubated overnight at 4° C. Non-specific binding was blocked by the incubation with 0.5% BSA in PBS. 50 μL of peptide dissolved in PBS in range concentrations and 50 μL (400 ng/mL) of human (bt)-VEGF-A165 in PBS containing 4 μg/mL of heparin were added respectively. After 2 h incubation at room temperature the plate was washed and treated with streptavidin-horseradish peroxidase conjugate in PBS (1:8000). Chemiluminescence was quantified immediately after addition of 100 μL Chemiluminescent substrate. In a positive control only (bt)-VEGF-A165 was present in wells, while, in negative control, wells were not coated by NRP-1. Percentages of inhibition were calculated by the following formula: 100%−[[(S−[…])/(P−NS)]·100%] where S is the signal intensity measured, NS is the signal measured in negative control, and P is the signal measured in positive control.
Selected active branched peptides were tested again using a more sensitive method with chemiluminescent detection. Moreover, some modified compounds were also examined. The IC50 for selected Lys(hArg)-X-X-Arg peptides was between 2-21 μM (Puszko A. K. at al. Neuropilin-1 peptide-like ligands with proline mimetics, tested using the improved chemiluminescence affinity detection method. MedChemComm, 2019, Vol. 10: 332-340).

NRP-1 [2] = target: T1, NRP-1; conditions: comparative branched peptides without cysteine; colorimetric method; cited from earlier work
NRP-1 [3] = target: T1, NRP-1; conditions: further comparative branched peptides without cysteine; chemiluminescent detection (Puszko et al. 2019); cited from earlier work
[4] = peptides of formula (I), chemiluminescence binding assay, read-out: IC50

T1 sequence (O14786 22-923): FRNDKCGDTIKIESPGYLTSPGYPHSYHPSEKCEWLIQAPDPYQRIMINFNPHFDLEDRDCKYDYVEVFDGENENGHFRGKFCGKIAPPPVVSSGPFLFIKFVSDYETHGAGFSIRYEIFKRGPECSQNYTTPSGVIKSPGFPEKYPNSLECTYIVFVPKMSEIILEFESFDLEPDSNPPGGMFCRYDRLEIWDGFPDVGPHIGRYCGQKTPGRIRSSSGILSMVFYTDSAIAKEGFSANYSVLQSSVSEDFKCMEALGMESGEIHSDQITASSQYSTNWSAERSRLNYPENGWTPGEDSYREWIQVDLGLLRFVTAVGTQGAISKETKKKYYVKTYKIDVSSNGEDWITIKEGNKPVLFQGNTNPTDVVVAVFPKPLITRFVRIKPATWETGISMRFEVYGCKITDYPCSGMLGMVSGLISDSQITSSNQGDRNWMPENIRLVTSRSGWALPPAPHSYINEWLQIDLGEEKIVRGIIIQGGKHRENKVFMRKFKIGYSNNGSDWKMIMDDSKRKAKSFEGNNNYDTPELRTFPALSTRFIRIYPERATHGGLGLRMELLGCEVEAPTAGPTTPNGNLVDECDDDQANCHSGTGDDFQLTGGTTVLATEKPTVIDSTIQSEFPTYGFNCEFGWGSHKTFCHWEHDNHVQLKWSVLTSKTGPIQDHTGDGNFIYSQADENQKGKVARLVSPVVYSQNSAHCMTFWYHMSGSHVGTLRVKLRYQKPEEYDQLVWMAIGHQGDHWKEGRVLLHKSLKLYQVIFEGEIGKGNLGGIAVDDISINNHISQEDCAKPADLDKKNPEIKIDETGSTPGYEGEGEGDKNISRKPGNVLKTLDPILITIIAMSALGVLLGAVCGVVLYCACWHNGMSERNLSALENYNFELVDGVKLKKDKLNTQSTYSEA

IC50 (NRP-1 [1]; [4])	Molecule	IC50 (NRP-1 [2])	also measured
0.05 µM	N=C(N)NCCCC[C@H](N)C(=O)NCCCC[C@H](NC(=O)[C@@H](N)CS)C(=O)N[C@@H](CCN)C(=O)N1C2CCCCC2C[C@H]1C(=O)N[C@@H](CCCNC(=N)N)C(=O)O (stereo partly drawn) [H-Cys-Lys(hArg)-Dab-Oic-Arg-OH] (HELM PEPTIDE1{C.K.[Dab].[O=C([C@@H]1CC2CCCCC2N1[*:1])[*:2]].R}|PEPTIDE2{[N=C(N)NCCCC[C@H](N)C(=O)[*:2]]}$PEPTIDE1,PEPTIDE2,2:R3-1:R2$$$V2.0)		
0.07 µM	N=C(N)NCCCC[C@H](N)C(=O)NCCCC[C@H](NC(=O)[C@@H](N)CS)C(=O)N[C@@H](CCN)C(=O)N1CC=C[C@H]1C(=O)N[C@@H](CCCNC(=N)N)C(=O)O [H-Cys-Lys(hArg)-Dab-ΔPro-Arg-OH] (HELM PEPTIDE1{C.K.[Dab].[O=C([C@@H]1C=CCN1[*:1])[*:2]].R}|PEPTIDE2{[N=C(N)NCCCC[C@H](N)C(=O)[*:2]]}$PEPTIDE1,PEPTIDE2,2:R3-1:R2$$$V2.0)		
0.04 µM	N=C(N)NCCCC[C@H](NC(=O)[C@@H](N)CS)C(=O)NCCCC[C@H](N)C(=O)N[C@@H](CCN)C(=O)N1C2CCCCC2C[C@H]1C(=O)N[C@@H](CCCNC(=N)N)C(=O)O (stereo partly drawn) [H-Lys(Cys-hArg)-Dab-Oic-Arg-OH] (HELM PEPTIDE1{K.[Dab].[O=C([C@@H]1CC2CCCCC2N1[*:1])[*:2]].R}|PEPTIDE2{C.[N=C(N)NCCCC[C@H](N[*:1])C(=O)[*:2]]}$PEPTIDE1,PEPTIDE2,1:R3-2:R2$$$V2.0)		
0.06 µM	N=C(N)NCCCC[C@H](NC(=O)[C@@H](N)CS)C(=O)NCCCC[C@H](N)C(=O)N[C@@H](CCN)C(=O)N1CC=C[C@H]1C(=O)N[C@@H](CCCNC(=N)N)C(=O)O [H-Lys(Cys-hArg)-Dab-ΔPro-Arg-OH] (HELM PEPTIDE1{K.[Dab].[O=C([C@@H]1C=CCN1[*:1])[*:2]].R}|PEPTIDE2{C.[N=C(N)NCCCC[C@H](N[*:1])C(=O)[*:2]]}$PEPTIDE1,PEPTIDE2,1:R3-2:R2$$$V2.0)		
	N=C(N)NCCCC[C@H](N)C(=O)NCCCC[C@H](N)C(=O)N[C@@H](CCN)C(=O)N1CCC[C@H]1C(=O)N[C@@H](CCCNC(=N)N)C(=O)O [H-Lys(hArg)-Dab-Pro-Arg-OH] (HELM PEPTIDE1{K.[Dab].P.R}|PEPTIDE2{[N=C(N)NCCCC[C@H](N)C(=O)[*:2]]}$PEPTIDE1,PEPTIDE2,1:R3-1:R2$$$V2.0)	200 nM	
	N=C(N)NCCCC[C@H](N)C(=O)NCCCC[C@H](N)C(=O)N[C@@H](CN)C(=O)N1CCC[C@H]1C(=O)N[C@@H](CCCNC(=N)N)C(=O)O [H-Lys(hArg)-Dap-Pro-Arg-OH] (HELM PEPTIDE1{K.[NC[C@H](N[*:1])C(=O)[*:2]].P.R}|PEPTIDE2{[N=C(N)NCCCC[C@H](N)C(=O)[*:2]]}$PEPTIDE1,PEPTIDE2,1:R3-1:R2$$$V2.0)	200 nM	
	N=C(N)NCCCC[C@H](N)C(=O)NCCCC[C@H](N)C(=O)N1CCC[C@H]1C(=O)N[C@@H](CCN)C(=O)N[C@@H](CCCNC(=N)N)C(=O)O [H-Lys(hArg)-Pro-Dab-Arg-OH] (HELM PEPTIDE1{K.P.[Dab].R}|PEPTIDE2{[N=C(N)NCCCC[C@H](N)C(=O)[*:2]]}$PEPTIDE1,PEPTIDE2,1:R3-1:R2$$$V2.0)	200 nM	
	N=C(N)NCCCC[C@H](N)C(=O)NCCCC[C@H](N)C(=O)N1CCC[C@H]1C(=O)N1CCC[C@H]1C(=O)N[C@@H](CCCNC(=N)N)C(=O)O [H-Lys(hArg)-Pro-Pro-Arg-OH] (HELM PEPTIDE1{K.P.P.R}|PEPTIDE2{[N=C(N)NCCCC[C@H](N)C(=O)[*:2]]}$PEPTIDE1,PEPTIDE2,1:R3-1:R2$$$V2.0)	1000 nM	
	C[C@@H](O)[C@H](N)C(=O)N[C@@H](CCCCN)C(=O)N1CCC[C@H]1C(=O)N[C@@H](CCCNC(=N)N)C(=O)O [TKPR] (H-TKPR-OH; N-terminus and C-terminus assumed)		IC50 (NRP-1 [1]; parent tetrapeptide without N-terminal Cys, VEGF-A165/NRP-1 binding, read-out: IC50 [μM] without Cys): > 100 µM
	H-Lys(hArg)-Dab-Oic-Arg-OH		IC50 (NRP-1 [3]): 2300 nM
	H-Lys(hArg)-Oic-Oic-Arg-OH		IC50 (NRP-1 [3]): 7200 nM
